From patent US20230310532A1, “FOOD EXTRACTS, METHODS OF EXTRACTION AND COMPOSITIONS THEREOF” (National University of Singapore, priority 2020, published 2023)
Where two headings read alike, the source gives them in different places.

Molecular target: T1, Pancreatic lipase (from porcine pancreas, type II) (Sus scrofa, UniProt P00591)
T1 construct: Pancreatic lipase (from porcine pancreas, type II, 100-500 units/mg, L3126); purchased Sigma-Aldrich L3126; host or cells: porcine pancreas (tissue-derived)
T1 sequence (P00591 1-450): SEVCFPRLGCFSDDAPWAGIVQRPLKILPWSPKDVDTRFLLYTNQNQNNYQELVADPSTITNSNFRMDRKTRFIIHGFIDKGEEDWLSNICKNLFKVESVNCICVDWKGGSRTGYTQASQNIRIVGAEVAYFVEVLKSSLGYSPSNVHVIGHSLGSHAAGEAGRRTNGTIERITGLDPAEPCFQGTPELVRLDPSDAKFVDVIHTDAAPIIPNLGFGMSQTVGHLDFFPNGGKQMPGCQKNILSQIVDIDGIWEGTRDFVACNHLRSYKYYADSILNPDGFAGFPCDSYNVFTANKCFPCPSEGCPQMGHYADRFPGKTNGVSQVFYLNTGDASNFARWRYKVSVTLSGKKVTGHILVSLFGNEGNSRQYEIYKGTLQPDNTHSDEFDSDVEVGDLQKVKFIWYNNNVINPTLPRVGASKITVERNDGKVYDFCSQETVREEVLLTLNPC
Test: Pancreatic lipase (PL) inhibitory activity assay using pNPP as substrate
Format: biochemical
Description: Pancreatic Lipase Activity Assay Preparation The pancreatic lipase activity assay uses 4-nitrophenyl palmitate (pNPP) as colorimetric lipase substrate. […] Tris-Borate-EDTA buffer (10X, pH 8.3, PB 1040) was purchased from Vivantis Technologies (Selangor, Malaysia).
Buffer solution was prepared by diluting the 10X Tris-Borate-EDTA buffer (890 mM) into 50 mM solution, followed by addition of 0.35% (m/v) sodium deoxycholate, and adjust pH to 8.3. pNPP solution was prepared by adding pNPP into isopropanol to make a 1.5 mg/mL solution. Both solutions were stored in fridge (4° C.) for further tests. PL solution was prepared by suspending PL in 4° C. buffer solution (10 mg/mL), shaking by vortex mixer for 2 min, and centrifuging at 4° C., 6000 rpm for 5 min. The supernatant was divided into several 0.5 mL aliquots in 0.6 mL PP centrifuge tubes and stored in freezer (-18° C.) for further tests.
High-throughput Pancreatic Lipase Activity Assay. For each sample, 20 µL of extract was transferred into a 0.6 mL PP centrifuge tube, dry up at room temperature for 10 min, followed by adding 300 µL buffer solution. The mixture was sonicated thoroughly in water bath sonicator, 150 µL of the sample was transferred onto a 96-well microplate (Corning, clear polystyrene, USA), and incubated in microplate reader (Synergy HT, Biotek Instruments Inc., Winooski, VT, USA) at 37° C. for 15 min. Meanwhile, frozen lipase solution was thawed in room temperature, 10 µL of which was added into the well, and incubate at 37° C. for another 10 min. Finally, the reaction starts by adding 10 µL pNPP solution into each well. The reading wavelength was fixed at 410 nm, 3 s shaking before each reading, and a 1-hour kinetic data was obtained by a reading interval of 20 or 60 seconds. Negative control group (blank) was prepared by adding 20 µL pure solvent instead of extract in the first step.
The tendency of readings in the first 3 minutes were regarded as linear growth, and the slope was calculated by linear regression in Excel (Office 2016, Microsoft, USA). The inhibition activity of each sample is calculated in percentage inhibition by Eq. 1.
Comparator PL Inhibitory Assay (pNPP as substrate). p-Nitrophenyl palmitate (pNPP) is a synthetic chemical probe widely used in PL inhibitory assay. Long chain fatty acid (palmitic acid) and chromatic indicator (p-nitrophenol) are linked by an ester bond, and the molecule works as a substrate of PL. Hydrolyzed by PL in buffer solution, pNPP molecules release the indicators, and a yellowish color is presented. PL activity is indicated by the speed of color gain by time, and the color could be measured by optical density at 410 nm by a spectrometer. […] According to Michaelis-Menten equation, PL activity could be presented by the initial rate of the reaction. […] The inhibition is calculated percentage by Eq.1, and a dose-response curve could be plotted according to PL inhibition under different inhibitor concentrations (FIG. 1B). Fitting with proper model, IC50 could be calculated by plugging 50% into the fitted formula.

[1] = isolated resin glycosides of sweet potato tuber, read-out: PL inhibition IC50
[2] = lipase inhibition, resin glycosides in fraction F5.1.23.34 of sweet potato tuber, read-out: IC50
[3] = lipase inhibition, resin glycosides in fraction F5.1.23.34 of sweet potato tuber, read-out: IC50 (µg/mL) (converted)
[4] = lipase inhibition, resin glycosides in fraction F5.1.23.34 of sweet potato tuber

Row | IC50 [1] | IC50 [2] | IC50 [3] | IC50 (µg/mL) [4] | Molecule
1 | 4.9 to 6.7 µM | 4.9 µM | 4.91 µM | – | CCCCC[C@H]1CCCCCCCCCC(=O)O[C@H]2[C@H](O[C@H]3[C@H](O1)O[C@H](C)[C@H](O)[C@@H]3O)O[C@@H](C)[C@H](O[C@@H]1O[C@@H](C)[C@H](O[C@@H]3O[C@@H](C)[C@H](OC(=O)[C@@H](C)CC)[C@@H](OC(=O)/C=C/c4ccccc4)[C@H]3O)[C@@H](O[C@@H]3O[C@@H](C)[C@H](O)[C@@H](O)[C@H]3O)[C@H]1OC(=O)[C@@H](C)CC)[C@H]2O [Batatoside III]
2 | 4.9 to 6.7 µM | 5.6 µM | 5.61 µM | – | CCCCCC1CCCCCCCCCC(=O)OC2C(O)C(OC(C)C2OC2OC(C)C(OC3OC(C)C(OC(=O)C(C)CC)C(OC(=O)C=Cc4ccccc4)C3O)C(OC3OC(C)C(O)C(O)C3O)C2OC(=O)C(C)CC)OC2C(O1)OC(C)C(O)C2O (stereo not shown) [Pescaprein XXVII]
3 | – | 6.7 µM | – | 8.5 µg/mL | Batataoside I
4 | – | 6 µM | – | 7.6 µg/mL | Batataoside II
